Key:
[1] = Cyclic voltammetry of kynurenine metabolites with Cu(II); format: physicochemical; conditions: metabolite 100 μM, cupric chloride 25 μM, PBS pH 7.4
Description: Cyclic Voltammetry—Cyclic voltammetry was performed at room temperature (22±2° C.) on ambient solutions using an EG&G PAR potentiostat, Model 273. The potentiostat was operated in Ramp Mode, generating a potential staircase waveform with a 0.25 mV step height. The potential window of +0.15 to −0.4V, in which Cu(I) is electroactive, but the metabolites are not, was scanned in both directions at a rate of 100 mV/sec. The current response was passed through a 5.3 Hz low pass filter. A minimum of three cycles were collected for each scan, ensuring the stability of the electrochemical response. The electrochemical cell consisted of an indium/tin oxide working electrode (Delta Technologies) with an active area of 0.32 cm^2, a platinum wire auxiliary electrode, and a Ag/AgCl (1 M KCl) reference electrode (Microelectrodes Inc.). Both the auxiliary and reference electrodes were positioned in the cell in close proximity to the working electrode. The working electrodes were pretreated with successive 10 minute sonications in Alconox (˜8 g/L), 95% ethanol, Milli-Q purified H2O (2×), and PBS (pH 7.4), followed by an overnight soak in PBS (pH 7.4). The ITO electrodes were subsequently “activated” immediately prior to use by successive cycling in PBS for three cycles in each of the following potential windows: +0.15 ? −0.4 V, +0.4 ? −0.4 V, and +1.0 ? −0.4 V. Cupric chloride (25 μM; Allied Chemical) was used as the Cu(II) source. Background voltammograms were obtained on each new electrode before testing the kynurenine pathway metabolites. PBS solutions of KYN, 3-HK, ANA, and 3-HAA (each at 100 μM) were separately scanned with and without added Cu(II) (25 μM). Each experiment also included a scan of Cu(II) (25 μM) in PBS without added test compound. All solutions were tested within minutes of being prepared. Each test was repeated to ensure the reproducibility of the results.
The voltammograms in FIGS. 3A–3D compare 3-HK and 3-HAA to their corresponding non-phenolic analogs, kynurenine (KYN) and anthranilic acid (ANA), in aqueous solutions of Cu(II) at pH 7.4. […] At potentials above +0.15 V, the metabolites undergo direct irreversible oxidation, a reaction that is not considered further here. Cyclic voltammetry of Cu(II) in PBS yielded a current response at ≈−100 mV due to reduction of the metal ion (scan “b” in each panel).

[2] = Hydrogen peroxide assay (DCF fluorometric); format: biochemical; conditions: for hydrogen peroxide production: Cu(II) present, dark
Description: Hydrogen Peroxide Assay—The fluorometric assay for hydrogen peroxide is based on the dichlorofluorescein diacetate (DCF) method (Molecular Probes, Eugene, Oreg.). The DCF solution (5 mM) in 100% ethanol was deacetylated in the presence of 0.01 M NaOH for 30 minutes and neutralized. Horseradish peroxidase (200 U/ml) was then added and the DCF concentration adjusted to 200 μM in PBS. The reaction solutions were carried out in PBS, pH 7.4, in a 96-well format plate (total volume=300 μL/well) and contained a test compound (KYN, 3-HK, 3-HAA, ANA, or ASC, each at 10 μM), deacetylated DCF (20 μM), and Cu(II)-glycine (1 μM) as indicated, incubated at 37° C. for 60 minutes. […] Abolition of the reading by co-incubation with catalase (1000 U/ml) was used for establishing H2O2 specificity. The fluorescent readings were recorded by a Packard FLURORCOUNT™ fluorescent plate reader with a 485 nm excitation filter and 530 nm emission filter. Concentrations were determined by comparison to a standard curve using reagent grade hydrogen peroxide in CHELEX™ chelating ion exchanae resin-treated PBS buffer, pH 7.4.
Reactions were conducted in the absence of added Cu(II), in the presence of added glycine-complexed Cu(II) (1 μM), in the presence of added glycine-complexed Cu(II) (1 μM) and catalase (1000 U/ml), or with added glycine-complexed Cu(II) (1 μM) and the copper chelator triethylenetetramine (TETA, 200 μM).

α-crystallin = molecular target: T1, α-crystallin (Bos taurus, UniProt P02470+P02510); assay: α-Crystallin modification under longwave ultraviolet illumination; format: biochemical; conditions: exposure of α-crystallin in the presence of longwave ultraviolet illumination
T1 sequence (P02470 1-173): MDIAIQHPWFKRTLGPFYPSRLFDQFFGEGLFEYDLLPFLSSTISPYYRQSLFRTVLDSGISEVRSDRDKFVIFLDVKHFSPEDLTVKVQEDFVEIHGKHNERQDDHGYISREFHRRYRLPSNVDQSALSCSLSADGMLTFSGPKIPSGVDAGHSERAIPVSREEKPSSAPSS
T1 sequence (P02510 1-175): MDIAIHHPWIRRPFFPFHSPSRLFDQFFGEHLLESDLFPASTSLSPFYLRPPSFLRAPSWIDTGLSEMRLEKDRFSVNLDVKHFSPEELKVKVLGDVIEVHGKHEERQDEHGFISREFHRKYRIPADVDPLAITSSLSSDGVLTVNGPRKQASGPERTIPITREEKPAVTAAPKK

αB-crystallin = molecular target: T2, αB-crystallin (Bos taurus, UniProt P02510); assay: αB-crystallin cross-linking in total calf lens protein (Western blot); conditions: metabolite 10 μM, five days 37° C. dark
T2 sequence (P02510 1-175): T1 sequence (P02510 1-175)

[3] = Hydrogen peroxide assay (DCF fluorometric); format: biochemical; conditions: reacting with Cu(II), 37° C., dark

Nc1c(O)cccc1C(=O)CC(N)C(=O)O (stereo not shown) [3-HK, 3-hydroxykynurenine]
Cu(II) reduction wave in presence of metabolite [1]: nearly abolished
hydrogen peroxide generated relative to available Cu(II) [2]: approximately 3 fold
hydrogen peroxide generated ([2]; ambient gas conditions, CHELEX-treated PBS, FIG. 4C): approx. 3 μM
hydrogen peroxide production ([2]; ambient oxygen tension): 1.49 μM H2O2
hydrogen peroxide production ([2]; high oxygen tension): 1.84 μM H2O2
hydrogen peroxide production ([2]; low oxygen tension (continuous argon sparging)): 0.35 μM H2O2
capacity of altered α-crystallin to reduce metal and generate hydrogen peroxide (α-crystallin): dramatically enhanced capacity
αB-crystallin cross-linking in the presence of Cu(II) (αB-crystallin; Cu(II) 10 μM): dramatically enhanced
αB-crystallin cross-linking (αB-crystallin; no added Cu(II)): apparent dimers and higher order oligomers were observed
time dependence of hydrogen peroxide generation [3]: continuous over five hours

— patent US7166472B2, “Method for the identification of agents that inhibit or promote cataracts and uses thereof” (The General Hospital Corporation, priority 2000, dated 2007)
